Holding throughout (type): cell-based
Experiment [1] deals with T1, P2X purinoceptor 7 (Mus musculus) (UniProt Q9Z1M0).
T1 sequence (whole entry): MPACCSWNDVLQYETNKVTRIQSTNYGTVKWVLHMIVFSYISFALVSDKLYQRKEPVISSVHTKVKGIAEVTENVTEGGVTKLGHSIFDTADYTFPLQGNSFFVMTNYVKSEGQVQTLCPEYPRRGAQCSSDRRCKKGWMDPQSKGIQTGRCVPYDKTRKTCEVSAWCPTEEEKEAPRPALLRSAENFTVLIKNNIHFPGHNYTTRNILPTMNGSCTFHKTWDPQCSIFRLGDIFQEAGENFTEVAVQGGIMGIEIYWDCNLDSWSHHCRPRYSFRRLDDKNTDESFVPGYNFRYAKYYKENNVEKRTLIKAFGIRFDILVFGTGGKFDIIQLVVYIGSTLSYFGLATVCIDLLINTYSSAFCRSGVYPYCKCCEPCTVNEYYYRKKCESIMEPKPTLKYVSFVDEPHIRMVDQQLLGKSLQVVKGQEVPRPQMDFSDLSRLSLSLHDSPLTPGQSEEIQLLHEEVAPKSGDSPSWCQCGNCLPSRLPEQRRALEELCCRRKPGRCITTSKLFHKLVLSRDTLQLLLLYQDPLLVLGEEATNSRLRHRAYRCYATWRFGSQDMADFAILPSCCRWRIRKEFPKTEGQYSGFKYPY
The experiment is described as follows: Antagonist activity at P2X7R in mouse N2a cells assessed as cytoprotective activity against ATP-induced cell death by measuring increase in cell viability at 0.1 to 5 uM incubated for 1 hr followed by ATP addition and measured after 48 hrs by MTT assay. The note with it: dose 0.1-5 µM, time 49.0 hrs. Background: Formazan colour is commonly taken as a measure of viable cells.

The target in experiment [2] is T1, P2X purinoceptor 7 (Mus musculus). The experiment is described as follows: Antagonist activity at P2X7R in mouse N2a cells assessed as reduction in ATP-induced calcium influx at 5 uM incubated for 1 hr by Fura-2AM dye based spectrofluorometry relative to control.
For experiment [3] the target is unchanged. The experiment is described as follows: Antagonist activity at P2X7R in mouse N2a cells assessed as reduction in ATP-induced EtBr uptake by cells incubated for 1 hr by fluorescence based assay relative to control. As to conditions: concentration not given here.
Experiment [4] shares this target. The experiment is described as follows: Antagonist activity at P2X7R in mouse N2a cells assessed as reduction in ATP-induced YO-PRO-1 uptake by cells at 10 uM incubated for 1 hr by fluorescence based assay relative to control.
The target is the same in experiment [5]. The experiment is described as follows: Antagonist activity at P2X7R in mouse N2a cells assessed as inhibition of ATP-induced NO production by measuring NO level at 1 uM incubated for 1 hr by using DAF-FM probe based fluorescence assay relative to control. More on the design: scale not given: the % may be the effect or the level left.
Experiment [6] shares this target. The experiment is described as follows: Antagonist activity at P2X7R in mouse N2a cells assessed as reduction in ATP-induced YO-PRO-1 uptake by cells incubated for 1 hr by fluorescence based assay. As to conditions: dose 0.1-10 µM.
Experiment [7] shares this target. The experiment is described as follows: Antagonist activity at P2X7R in mouse N2a cells assessed as inhibition of ATP-induced ROS production at 1 uM incubated for 1 hr by using H2DCF-DA probe based fluorescence assay relative to control.
In another experiment the test system is N2a. The experiment is described as follows: Cytotoxicity against mouse N2a cells assessed as reduction in cell viability incubated for 24 hrs by MTT assay.
Experiment [8] has as its target T1, P2X purinoceptor 7 (Mus musculus). The experiment is described as follows: Antagonist activity at P2X7R in mouse N2a cells assessed as cytoprotective activity against ATP-induced cell death by measuring increase in cell viability at 10 uM incubated for 1 hr followed by ATP addition and measured after 48 hrs by MTT assay relative to control. As to conditions: time 49.0 hrs.

Experiment [9] shares this target. The experiment is described as follows: Antagonist activity at P2X7R in mouse N2a cells assessed as reduction in ATP-induced calcium influx at 10 uM incubated for 1 hr by Fura-2AM dye based spectrofluorometry relative to control.
The target is the same in experiment [10]. The experiment is described as follows: Antagonist activity at P2X7R in mouse N2a cells assessed as inhibition of ATP-induced NO production at 10 uM incubated for 1 hr by using DAF-FM probe based fluorescence assay.
For experiment [11] the target is unchanged. The experiment is described as follows: Antagonist activity at P2X7R in mouse N2a cells assessed as inhibition of ATP-induced ROS production at 10 uM incubated for 1 hr by using H2DCF-DA probe based fluorescence assay.
The target is the same in experiment [12]. The experiment is described as follows: Antagonist activity at P2X7R in mouse N2a cells assessed as reduction in ATP-induced calcium influx at 5 uM incubated for 1 hr by Fluo-3AM dye based laser scanning microscopy.
For experiment [13] the target is unchanged. The experiment is described as follows: Antagonist activity at P2X7R in mouse N2a cells assessed as inhibition of ATP-induced ROS production at 50 uM incubated for 1 hr by using H2DCF-DA probe based fluorescence assay.
Experiment [14] shares this target. The experiment is described as follows: Antagonist activity at P2X7R in mouse N2a cells assessed as reduction in ATP-induced calcium influx at 50 uM incubated for 1 hr by Fura-2AM dye based spectrofluorometry.
For experiment [15] the target is unchanged. The experiment is described as follows: Antagonist activity at P2X7R in mouse N2a cells assessed as inhibition of ATP-induced NO production at 50 uM incubated for 1 hr by using DAF-FM probe based fluorescence assay.
For experiment [16] the target is unchanged. The experiment is described as follows: Antagonist activity at P2X7R in mouse N2a cells assessed as inhibition of ATP-induced NO production at 0.1 to 10 uM incubated for 1 hr by using DAF-FM probe based fluorescence assay. The note with it: dose 0.1-10 µM.
The target is the same in experiment [17]. The experiment is described as follows: Antagonist activity at P2X7R in mouse N2a cells assessed as inhibition of ATP-induced ROS production at 0.1 uM incubated for 1 hr by using H2DCF-DA probe based fluorescence assay relative to control.
The target is the same in experiment [18]. The experiment is described as follows: Antagonist activity at P2X7R in mouse N2a cells assessed as cytoprotective activity against ATP-induced cell death by measuring increase in cell viability at 1 uM incubated for 1 hr followed by ATP addition and measured after 48 hrs by MTT assay relative to control. The note with it: time 49.0 hrs.
The target is the same in experiment [19]. The experiment is described as follows: Antagonist activity at P2X7R in mouse N2a cells assessed as reduction in ATP-induced EtBr uptake by cells at 0.1 to 10 uM incubated for 1 hr by fluorescence based assay. As to conditions: dose 0.1-10 µM.
Experiment [20] shares this target. The experiment is described as follows: Antagonist activity at P2X7R in mouse N2a cells assessed as inhibition of ATP-induced NO production by measuring NO level at 10 uM incubated for 1 hr by using DAF-FM probe based fluorescence assay relative to control. Also on record: scale not given: the % may be the effect or the level left.
Experiment [21] has the same target. The experiment is described as follows: Antagonist activity at P2X7R in mouse N2a cells assessed as reduction in ATP-induced YO-PRO-1 uptake by cells at 5 uM incubated for 1 hr by fluorescence imaging based laser scanning microscopic analysis.

Results on 7 compounds are retold here after ChEMBL document CHEMBL4680337, “Synthetic 1,4-Naphthoquinones inhibit P2X7 receptors in murine neuroblastoma cells” (Bioorg Med Chem, 2021).

The structures appear in SMILES notation. Activity calls are given as the source filed them. The calls are words filed in the database; no cut-off is given here.

A word on the inhibition: it is how much of the control response was suppressed. As a reminder, the EC50 is the midpoint of the concentration-response curve.

In the case of `COC1=C(S[C@@H]2O[C@H](COC(C)=O)[C@@H](OC(C)=O)[C@H](OC(C)=O)[C@H]2OC(C)=O)C(=O)c2c(O)c(C)c(C)c(O)c2C1=O`, the result in experiment [1] was inactive. Besides, the inhibition result in [2] is “inactive”. For the same compound, the inhibition is 25.2% in experiment [3], 54.1% in [4], “Dose-dependent effect” in experiment [6] and 70.9% in experiment [7]. Further, the Activity in experiment [5] was found to be 56.8%. The EC50 with N2a was determined as 17.8 µM.

Take `CCOc1ccc(Nc2ccc(/C(=C3C=C/C(=[N+](/CC)Cc4cccc(S(=O)(=O)[O-])c4)C=C/3C)c3ccc(N(CC)Cc4cccc(S(=O)(=O)O)c4)cc3C)cc2)cc1`: the Activity in experiment [8] turned out to be 14.6%. For the same compound, the inhibition in experiment [9] is 46%. The inhibition result in experiment [10], in experiment [4] and in experiment [11] was “Active” each time.

In the case of `Clc1cccc(-c2nnnn2Cc2cccnc2)c1Cl`, in [2], the inhibition worked out at 90%.

Take `Cc1c(C)c(O)c2c(c1O)C(=O)C1=C(S[C@H]3O[C@@H](CO)[C@H](O)[C@@H](O)[C@@H]3O1)C2=O`: in experiment [12], the inhibition result was “Active”. In addition, the result in experiment [1] was inactive. The inhibition in [2] is 36%; in [3] it was 18.3%; in [4], 20.7%; in [7] it was 58.4%. The Activity in [5] is 48.5%. For the same compound, in the experiment with N2a, the EC50 amounted to 22.6 µM.

On to `Cc1cc(/N=N/c2ccc(S(=O)(=O)O)cc2S(=O)(=O)O)c(COP(=O)(O)O)c(C=O)c1O`, for which the inhibition entry in [13], in experiment [14] and in [15] was “Active” throughout.

In the case of `COC1=C(S[C@@H]2O[C@H](CO)[C@@H](O)[C@H](O)[C@H]2O)C(=O)c2ccccc2C1=O`, the inhibition result in experiment [16] is “inactive”. The inhibition is 15.1% in experiment [2]; 69.8% in experiment [17]; 34.8% in [3]; 60.9% in experiment [4]; “Dose-dependent effect” in experiment [6]. In [18], the Activity worked out at 22.2%. In addition, in the experiment with N2a, the EC50 was 75.2 µM.

In the case of `O=C1C2=C(S[C@H]3O[C@@H](CO)[C@H](O)[C@@H](O)[C@@H]3O2)C(=O)c2ccccc21`, the inhibition entry in experiment [19] and in [21] was “Active” each time. For the same compound, the inhibition in experiment [2] was 32.7%; in [17], 66.3%; in experiment [3], 42.6%; in [4], 46.2%; in experiment [6], “Dose-dependent effect”. Further, the Activity in experiment [20] was 44.5%; in experiment [18], 19.6%. Also, the EC50 with N2a worked out at 29.5 µM.
